# Measurements: US8900783B2, “Electrophotographic photoreceptor, process cartridge, and image forming apparatus” (Fuji Xerox Co., Ltd., priority 2013, dated 2014)
# Like-named read-outs stand apart in the source and are kept apart here.
# Assay: Evaluation on solubility with respect to solvent
# Assay type: physicochemical
# Details: organic solvent or mixture, thermodynamic from solid, stirred for one hour, visually checked
# Protocol: Here, Compound (C) is a specific non-charge transporting compound which is not the specific position isomer mixture.
# First, the Exemplary compounds and Compound (C) are respectively dissolved in tetrahydrofuran, and solubility of the solution is evaluated as follows.
# 1 g of Compound (C) is added to 10 ml of tetrahydrofuran at 20° C., the mixture is stirred for one hour, and solubility thereof is visually checked. A case where Compound (C) is dissolved is evaluated as A, a case where an insoluble part is slightly observed is evaluated as B, and a case where the solution yields white turbidity is evaluated as C.
# In addition, solubility thereof when the solvent is changed from tetrahydrofuran to toluene, xylene, dichloroethane, chloroform, and butyl acetate is evaluated.
smiles,measurement,setting,value
C=Cc1ccc(COc2ccc(C(C)(c3ccc(OCc4ccc(C=C)cc4)cc3)c3ccc(OCc4ccc(C=C)cc4)cc3)cc2)cc1 [Compound (C)],solubility at 1 h,"1 g added to 10 ml of butyl acetate at 20° C., read-out: Evaluation on solubility Butyl acetate",< 100 mg/mL
same,solubility at 1 h,"1 g added to 10 ml of chloroform at 20° C., read-out: Evaluation on solubility Chloroform",> 100 mg/mL
same,solubility at 1 h,"1 g added to 10 ml of dichloroethane at 20° C., read-out: Evaluation on solubility Dichloroethane",> 100 mg/mL
same,solubility at 1 h,"1 g added to 10 ml of tetrahydrofuran at 20° C., read-out: Evaluation on solubility Tetrahydrofuran",> 100 mg/mL
same,solubility at 1 h,"1 g added to 10 ml of toluene at 20° C., read-out: Evaluation on solubility Toluene",< 100 mg/mL
same,solubility at 1 h,"1 g added to 10 ml of xylene at 20° C., read-out: Evaluation on solubility Xylene",< 100 mg/mL
